From patent publication US9303042B2, “Triazolothienopyrimidine compound inhibitors of urea transporters and methods of using inhibitors” (The Regents of the University of California, priority 2012, dated 2016)
Like-named read-outs stand apart in the source and are kept apart here.

Columns and labels:
[1] = biological target: T1, mouse UT-B (Mus musculus, UniProt Q8VHL0); assay: Stopped-flow light scattering assay of erythrocyte urea transport, mouse erythrocytes; assay type: cell-based
T1 construct: Screening was performed using mouse erythrocytes, which strongly express UT-B; endogenous in cells; host or cells: erythrocytes in whole blood of wild-type CD1 mice
T1 sequence (Q8VHL0 1-384): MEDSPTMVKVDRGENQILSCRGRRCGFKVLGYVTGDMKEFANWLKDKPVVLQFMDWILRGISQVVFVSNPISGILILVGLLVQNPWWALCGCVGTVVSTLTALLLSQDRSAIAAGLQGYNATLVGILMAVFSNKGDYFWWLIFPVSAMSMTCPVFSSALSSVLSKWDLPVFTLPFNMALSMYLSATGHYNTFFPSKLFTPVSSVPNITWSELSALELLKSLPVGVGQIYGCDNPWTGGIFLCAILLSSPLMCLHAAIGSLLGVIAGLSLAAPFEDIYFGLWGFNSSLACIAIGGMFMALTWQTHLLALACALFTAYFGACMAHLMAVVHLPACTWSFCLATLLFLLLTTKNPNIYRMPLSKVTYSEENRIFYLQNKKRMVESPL
Description: Erythrocyte urea and water permeabilities were measured by stopped-flow light scattering using a Hi-Tech Sf-51 instrument (Wiltshire, UK). For measurement of urea permeability, dilutions of whole blood (mouse or human) in PBS (hematocrit ˜0.5%) were incubated with test compounds for 5 min and then subjected to a 100-mM inwardly directed urea gradient. After an initial osmotic shrinking phase, the kinetics of increasing cell volume caused by urea influx was measured as the time-course of 90° scattered light intensity at 530 nm, with increasing cell volume producing reduced scattered light intensity. Urea permeability and percentage inhibition were computed as described (see, e.g., Levin et al., FASEB J. supra, 2007)). In some experiments, different urea gradients (25-200 mM) were used, or inhibitor was added only to the erythrocyte-containing or urea-containing solutions. In some experiments an outwardly directed urea gradient was used in which erythrocytes were incubated for 30 min with PBS containing specified urea and mixed in the stopped-flow apparatus with PBS. In reversibility experiments, erythrocytes were incubated for 30 min with inhibitor, washed three times to remove inhibitor, and urea transport assayed. Osmotic water permeability was measured using a 100 mM gradient of sucrose.
UT-B inhibition potency was assayed quantitatively by stopped-flow light scattering from the kinetics of urea influx in response to an inwardly directed urea gradient (see Materials and Methods above). Rapid mixing of an erythrocyte suspension with an equal volume of a hyperosmolar, urea-containing solution to give a 100 mM inwardly directly urea gradient produced rapid cell shrinking due to osmotic water efflux, followed by cell swelling as a consequence of urea (and water) influx.
Measurements were done using a Hi-Tech Sf-51 instrument (Wiltshire, UK). Whole blood (mouse or human) was diluted in PBS (hematocrit approximately 0.5%), incubated with inhibitor for 5 min and then subjected to a 100-mM inwardly directed urea gradient. The kinetics of increasing cell volume caused by urea influx was measured as the time-course of 90° scattered light intensity at 530 nm. Urea permeability and percentage inhibition were computed as described (see, e.g., Levin et al., supra 2007).

[2] = biological target: T2, TMEM16A (Homo sapiens, UniProt Q5XXA6); assay: TMEM16A calcium-activated chloride conductance by short-circuit current; assay type: cell-based; conditions: 10 μM, ATP-activated
T2 construct: expressed in transfected cells
T2 sequence (Q5XXA6 1-986): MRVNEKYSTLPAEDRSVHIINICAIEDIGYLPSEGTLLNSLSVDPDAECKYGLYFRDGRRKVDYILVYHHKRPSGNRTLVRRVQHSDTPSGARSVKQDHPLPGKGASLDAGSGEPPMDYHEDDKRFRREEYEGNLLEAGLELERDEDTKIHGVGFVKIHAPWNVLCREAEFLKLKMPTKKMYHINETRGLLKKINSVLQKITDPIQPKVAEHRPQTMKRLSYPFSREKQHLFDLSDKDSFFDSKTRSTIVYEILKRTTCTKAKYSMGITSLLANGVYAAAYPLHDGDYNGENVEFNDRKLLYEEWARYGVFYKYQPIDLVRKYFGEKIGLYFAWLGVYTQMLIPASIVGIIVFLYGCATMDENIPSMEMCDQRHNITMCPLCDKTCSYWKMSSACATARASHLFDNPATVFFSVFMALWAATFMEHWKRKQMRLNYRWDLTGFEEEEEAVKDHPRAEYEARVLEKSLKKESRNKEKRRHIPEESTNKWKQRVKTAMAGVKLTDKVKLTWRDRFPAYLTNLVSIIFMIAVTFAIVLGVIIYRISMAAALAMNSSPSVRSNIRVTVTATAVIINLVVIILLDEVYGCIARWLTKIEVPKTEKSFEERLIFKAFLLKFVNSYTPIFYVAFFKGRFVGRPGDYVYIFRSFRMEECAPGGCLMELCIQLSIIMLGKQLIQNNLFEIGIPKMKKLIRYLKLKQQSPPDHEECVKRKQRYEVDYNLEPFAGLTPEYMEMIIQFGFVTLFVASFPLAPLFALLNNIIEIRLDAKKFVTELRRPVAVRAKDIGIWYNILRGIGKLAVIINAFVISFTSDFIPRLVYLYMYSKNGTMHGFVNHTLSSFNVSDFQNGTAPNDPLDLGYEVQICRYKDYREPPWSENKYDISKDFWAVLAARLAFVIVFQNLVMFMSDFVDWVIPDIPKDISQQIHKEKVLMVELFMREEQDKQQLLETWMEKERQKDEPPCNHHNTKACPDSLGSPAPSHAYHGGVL
Description: CFTR chloride conductance was measured by short-circuit current analysis in Fisher rat thyroid (FRT) cells stably expressing CFTR, as described (see, e.g., Ma et al., J. Biol. Chem. (2002), supra). CFTR chloride conductance was stimulated by forskolin and inhibited by a thiazolidinone compound that inhibits CFTR (CFTRinh-172). TMEM16A calcium-activated chloride conductance was measured by short-circuit current analysis in FRT cells stably expressing TMEM16A, as described (see, e.g., Namkung et al., J. Biol. Chem. 286:2365-2374, 2011. TMEM16A was stimulated by ATP and inhibited by tannic acid (100 μM). Cytotoxicity was measured in MDCK using the MTT assay [3(4,5-dimethyl-thiazol-2-yl)-2,5-diphenyl tetrazolium bromide] by standard procedures.

[3] = LC/MS analysis of compound in mouse kidney, blood and urine
Description: In some studies, mice were placed on low, normal or […] diets (4%, 20% or 40% casein, Harlan Labs.) for 1 week prior study of dDAVP effects. […] Urea concentration was determined by a colorimetric enzymatic assay as described above. Measurements were also done in the absence of dDAVP in which urine was collected during free access to food and water.
Kidneys were weighed, mixed with acetic acid (100 μL per 1 g tissue) and ethyl acetate (10 mL per 1 g tissue), and homogenized.

[4] = for several hours following a single intraperitoneal administration

Structure (SMILES): CCc1ccc(S(=O)(=O)c2nnn3c2nc(NCc2cccs2)c2sccc23)cc1 [UTBinh-14, [3-(4-Ethyl-benzenesulfonyl)-thieno[2,3-e][1,2,3]triazolo[1,5-a]pyrimidin-5-yl]-thiophen-2-ylmethylamine]
- mechanism of UT-B inhibition vs urea ([1]; 0 and 50 nM, urea gradient varied): competitive
- reduction of urea transport ([1]; 100 nM, mouse erythrocytes): approximately 75%
- reversibility of UT-B inhibition ([1]; 100 nM, washout): reversible
- inhibition at 1 µM ([1]; 1 μM): ~100%
- urea transport in UT-B null erythrocytes ([1]; erythrocytes from UT-B knockout mice): did not inhibit
- IC50 ([1]; erythrocytes pre-loaded with 100 mM urea, mixed with urea-free PBS, read-out: IC50 urea efflux): 0.0267 µM
- IC50 ([1]; urea influx, 100 mM inwardly directed urea gradient, read-out: IC50 for mouse UT-B): 0.0251 µM
- inhibition of TMEM16A chloride conductance [2]: no significant inhibition
- concentration in kidney ([3]; for at least 4 h after single intraperitoneal 300 μg): greater than 1 μM
- concentration in blood [3, 4]: greater than 1 μM
- concentration in urine [3, 4]: greater than 1 μM
- Peak concentration in kidney ([3]; single intraperitoneal 300 μg, normalized to kidney water volume): approximately 10 μM
